Experimental findings from US20240284907A1, “NOVEL DERIVATIVES OF NON-CODED AMINO ACIDS AND THEIR USE AS HERBICIDES” (FortePhest LTD., priority 2021, published 2024) are described below.

The subject of data set [1] is Seeds of Lettuce R. (Super-Jericho). The data set is described as follows: Filter paper bioassay with lettuce seeds: germination and early plant development, Minimal Effective Concentration (MEC). In kind it is in vivo. The conditions noted are these: lettuce seeds on filter paper, 0 to 1 mmol/l, visually assessed after 6 days. Put shortly:
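Visual scoring on day 6 of radicle and shoot growth gives the MEC, the lowest dose deviating from control (no germination or malformation). Seeds (lettuce Super-Jericho, 10 per plate) sat on filter paper with 0–1 mmol/l aqueous compound, 48 h dark then 4 days 6/18 dark/light, in at least two repeats.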

The test system of data set [2] is Romaine lettuce (Lactuca sativa L.) plants. The data set is described as follows: Post-emergence herbicidal activity on potted Romaine lettuce plants (soil or foliar application). In kind it is in vivo. The conditions noted are these: lettuce at 2 to 3 leaves, two weeks after treatment. The method, boiled down:
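Potted lettuce at the 2-3 leaf stage received compound in 0.1% aqueous Silwet, up to 0.0001%, applied to soil (1 ml/pot) or sprayed on foliage (0.1 ml/pot), 20 plants per concentration. Visual scoring and aboveground wet weight after two weeks; growth inhibition from median weights versus control.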

For data set [3], the system named is Amaranth. The data set is described as follows: Herbicidal effect on potted weeds, plant development score. The conditions noted are these: soil application 1 mg/pot, scale 0 (dead plants) to 5 (healthy, as Control). It is filed as in vivo. How it is done:
(§1) Weed seeds were sawn in 0.3-liter pots, containing medium-heavy clay-loam soil from organic fields (55% clay, 23% silt, 20% sand, 2% organic matter, pH 7.1). The experiment was conducted in a completely randomized design. Each treatment was replicated 3 times (3 pots). Each compound was typically tested on crops (Corn, Wheat, Soy, Cotton, Oat, Chickpea) and weeds (Amaranth, Chenopodium, Lentils, Sinapis, Silybum).
(§2) The herbicides were applied at dose from 0 (control) to 5 mg/pot. The treatment was performed at the day of sawn (pre-emergence treatment). Then the pots were transferred to a mesh house 24 hours after herbicide application and were sprinkler irrigated to field capacity of the soil. Alternatively, the herbicides were applied on grown plants at stage 2-3 true leaves (post-emergence treatment).
(§3) The plants were grown in the mesh house during the entire experiment. Plant development at 6, 12, 19, 26 and 32 days after application (DAA) were evaluated on a scale of 0 to 5, in which 0 represents dead plants and 5 represents healthy plants similar or not different from Control. In the context of the invention, the herbicidal effect was expressed as a score calculated as an average of assessments of plants vigor, height, and leaf color.

Data set [4] concerns Chenopodium. The description is as above. It is filed as in vivo. The conditions noted are these: soil application 1 mg/pot, scale 0 (dead plants) to 5 (healthy, as Control). The procedure: as §1, §2, §3
In data set [5] the test system is Lentils. The description is as above. The conditions noted are these: soil application 1 mg/pot, scale 0 (dead plants) to 5 (healthy, as Control). It is filed as in vivo. The procedure:
as §1, §2, §3

The subject of data set [6] is Silybum. The description is as above. It is filed as in vivo. The following applies: soil application 1 mg/pot, scale 0 (dead plants) to 5 (healthy, as Control). The procedure:
as §1, §2, §3

Data set [7] relates to Sinapis. The data set is described as above. It is filed as in vivo. The following applies: soil application 1 mg/pot, scale 0 (dead plants) to 5 (healthy, as Control). How it is done: as §1, §2, §3
Data set [8] relates to Romaine lettuce (Lactuca sativa L.) plants. The data set is described as follows: Comparison of NAA and DNAA: growth inhibition of potted Romaine lettuce plants. It is filed as in vivo. The conditions noted are these: two weeks after treatment. How it is done:
The tests were performed on Romaine lettuce (Lactuca sativa L.) plants at the stage 2 to 3 leaves. The plants were grown in mini-pots packed with soil, dimensions 2×2×5 cm, one plant per mini-pot. Test compounds were dissolved in 0.1% aqueous solution water solution of Silwet adjuvant. The test material where applied in rate 0 (Control), 0.01, 0.05, and 0.5 mg/pot. The test compounds were applied on soil or foliar with airbrush (0.1 ml per pot). Each concentration was tested on 20 plants. Two weeks after the treatment the herbicidal effects of the respective test material were visually evaluated (aboveground part and roots. Then the aboveground part of the plants was neatly cut and weighed (wet weight) to assess the growth inhibition caused by the test compound. The growth inhibition (GI) was calculated as following: […]
Where Mt and Mc are median wet weight of treated and control plants, respectively.

For data set [9], the system named is Seeds of Lettuce R. (Super-Jericho). The data set is described as follows: Filter paper bioassay with lettuce seeds: germination, Fully Effective Concentration (FEC). It is filed as in vivo. The following applies: lowest concentration mostly preventing lettuce seed germination, assessed after 6 days. The method, boiled down:
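Ten lettuce seeds per Petri dish on filter paper with 2.0 ml aqueous test solution, 0 to 1 mmol/l, kept 48 hours dark then 4 days at 6/18 dark/light. Radicle and shoot assessed visually at day 6; FEC is the lowest concentration mostly preventing germination.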

The mark [10] stands for this setting: foliar application, 0.05 mg/pot.
Setting [11] is: foliar application, 0.50 mg/pot.

For the compound “2-(6-bromopyridin-2-yl)-2,2-difluoroacetic acid [compound 6617]”, in data set [1], the “Score (activity score of Minimal Effective Concentration, MEC)” value was “Strong (0.01 mM)”. In addition, the entries for the “Score (test material causing more than 85% of Growth Inhibition or irreversible plant damage)” value in data set [2] (foliar application) and in data set [2] (soil application) were “moderate (0.5)” and “strong (0.01 to 0.05)”, respectively. Also, the “Average Herbicidal Effect, Amaranth” value in [3] (post-emergence) is 2.0; in data set [3] (pre-emergence), 4.5. Further, the “Average Herbicidal Effect, Chenopodium” value in data set [4] (post-emergence) is given as 0.5; in [4] (pre-emergence), 4.5. Moreover, the “Average Herbicidal Effect, Lentils” value in data set [5] (post-emergence) stood at 1.0; in data set [5] (pre-emergence), 2.0. Besides, the “Average Herbicidal Effect, Silybum” value stood at 4.5 in data set [6] (post-emergence) and 5.0 in data set [6] (pre-emergence). The “Average Herbicidal Effect, Sinapis” value is listed as 2.0 in data set [7] (post-emergence) and 3.5 in data set [7] (pre-emergence). Besides, the “Herbicidal effect, growth application (%)” value (shortened to “Herbicidal effect … (%)”) in data set [8] (setting [10]) came to 88%; in data set [8] (setting [11]) it was 100%; in data set [8] (soil application, 0.01 mg/pot) it was 52%; in data set [8] (soil application, 0.05 mg/pot), 92%; in data set [8] (soil application, 0.50 mg/pot), 91%.

For the compound `CC(=O)NCCc1nc(Cl)sc1Cl` [ID 5650, N-[2-(2,5-dichloro-1,3-thiazol-4-yl)ethyl]acetamide], the melting point came to 87 °C.

For `O=C([O-])C(F)(F)c1csc(Cl)n1.[Na+]` [compound 5666, sodium(2-chloro-1,3-thiazol-4-yl)(difluoro)acetate], the “Score (activity score of Minimal Effective Concentration, MEC)” value in data set [1] is given as “very strong”. The “Score (test material causing more than 85% of Growth Inhibition or irreversible plant damage)” value in data set [2] (foliar application) and in data set [2] (soil application) was “strong (0.01 to 0.05)” throughout. Further, the results for the “Average Herbicidal Effect, Amaranth” value in data set [3] (post-emergence) and in [3] (pre-emergence) were 1.2 and 1.0, respectively. In addition, the figures for the “Average Herbicidal Effect, Chenopodium” value in data set [4] (post-emergence) and in [4] (pre-emergence) were 1.5 and 0.0, respectively. In addition, the “Average Herbicidal Effect, Lentils” value in data set [5] (post-emergence) and in data set [5] (pre-emergence) was 0.0 throughout. In addition, the “Average Herbicidal Effect, Silybum” value in data set [6] (post-emergence) was determined as 0.0; in data set [6] (pre-emergence), 0.5. Also, the “Average Herbicidal Effect, Sinapis” value in data set [7] (post-emergence) is 0.0; in data set [7] (pre-emergence), 1.0. Further, the “FEC (Fully Effective Concentration)” value in [9] is 0.010 mM.

Take `O=C(O)C(F)(F)c1nc(Cl)sc1Cl` [compound 5667, 2-(2,5-dichloro-1,3-thiazol-4-yl)-2,2-difluoroacetic acid]: in [1], the “Score (activity score of Minimal Effective Concentration, MEC)” value was “very strong”. Moreover, the “Score (test material causing more than 85% of Growth Inhibition or irreversible plant damage)” value in data set [2] (foliar application) and in data set [2] (soil application) was “strong (0.01 to 0.05)” each time. For the same compound, the “Average Herbicidal Effect, Amaranth” value in data set [3] (post-emergence) was found to be 3.0; in data set [3] (pre-emergence), 2.0. The entries for the “Average Herbicidal Effect, Chenopodium” value in [4] (post-emergence) and in data set [4] (pre-emergence) were 2.4 and 0.0, respectively. Moreover, the “Average Herbicidal Effect, Lentils” value in data set [5] (post-emergence) and in data set [5] (pre-emergence) was 0.0 in each case. The “Average Herbicidal Effect, Silybum” value in [6] (post-emergence) is given as 0.0; in data set [6] (pre-emergence), 3.5. The “Average Herbicidal Effect, Sinapis” value turned out to be 0.0 in data set [7] (post-emergence) and 2.0 in data set [7] (pre-emergence). Further, the “Herbicidal effect … (%)” value was 92% in data set [8] (setting [10]); 100% in data set [8] (setting [11]); 90% in [8] (soil application, 0.01 mg/pot); 91% in data set [8] (soil application, 0.05 mg/pot); 100% in [8] (soil application, 0.50 mg/pot).

Turning to “(2,5-dichlorothiophen-3-yl)(difluoro)acetic acid [compound 5640]”, the “Score (activity score of Minimal Effective Concentration, MEC)” value in data set [1] is given as “Strong (0.01 mM)”. Also, the “Score (test material causing more than 85% of Growth Inhibition or irreversible plant damage)” value in [2] (foliar application) and in data set [2] (soil application) was “strong (0.01 to 0.05)” each time. Also, the “Average Herbicidal Effect, Amaranth” value in [3] (post-emergence) is given as 2.0; in data set [3] (pre-emergence), 4.0. The “Average Herbicidal Effect, Chenopodium” value in [4] (pre-emergence) was 5.0. Further, the “Average Herbicidal Effect, Lentils” value in data set [5] (post-emergence) turned out to be 2.1; in data set [5] (pre-emergence), 0.0. Moreover, the “Average Herbicidal Effect, Silybum” value was determined as 2.0 in data set [6] (post-emergence) and 2.5 in data set [6] (pre-emergence). For the same compound, the “Average Herbicidal Effect, Sinapis” value in [7] (post-emergence) is on record as 0.0. Moreover, the “FEC (Fully Effective Concentration)” value in data set [9] is given as 0.100 mM. For the same compound, the “Herbicidal effect … (%)” value in data set [8] (setting [10]) was 100%; in data set [8] (setting [11]) it was 100%; in data set [8] (soil application, 0.01 mg/pot), 5%; in data set [8] (soil application, 0.05 mg/pot), 100%; in data set [8] (soil application, 0.50 mg/pot) it was 100%.
